Results taken from patent US20260076973A1 (priority 2023, published 2026).
Structures can show the parent of a compound that is named as a salt.

System: SARS-CoV-2 (WA1)
Test: microbe, parasite or virus in culture
Format: cell-based
Details: Severe acute respiratory syndrome coronavirus 2, Vero C1008

Row | SMILES | IC50
1 | Cc1ccc(Nc2nc(Nc3cccc(C(F)(F)F)c3)nc(N3CCOCC3)n2)cc1C [VIRADEM-11914, N-(3,4-Dimethylphenyl)-6-morpholin-4-yl-N^1-(3-trifluoromethylphenyl)-[1,3,5]triazine-2,4-diamine] | 130 nM
2 | Cc1ccc(Nc2nc(Nc3cccc(F)c3)nc(N3CCOCC3)n2)cc1Cl [VIRADEM-12292, N-(3-Chloro-4-methylphenyl)-N^1-(3-fluorophenyl)-6-morpholin-4-yl-[1,3,5]triazine-2,4-diamine] | 150 nM
3 | Clc1ccccc1Nc1nc(Nc2ccccc2Cl)nc(N2CCOCC2)n1 [VIRADEM-14303, N,N^1-bis-(2-chlorophenyl)-6-morpholin-4-yl-[1,3,5]triazine-2,4-diamine] | > 1000 nM

Same assay, conditions: Severe acute respiratory syndrome coronavirus 2, Vero C1008, VIRADEM compounds, SARS-CoV-2(WA1) CPE assay, Round 2, concentration range 1000-0.05 nM, Vero E6; read-out: IC50

Row | SMILES | IC50
4 | Cc1ccc(N2C(N3CCOCC3)=NC(N)=NC2Nc2cccc(F)c2)cc1 (centres unmarked) [VIRADEM-11785, N-(3-Fluorophenyl)-6-morpholin-4-yl-N^1-p-tolyl-[1,3,5]triazine-2,4-diamine hydrochloride] | 170 nM
5 | Cc1cccc(N2C(N3CCOCC3)=NC(N)=NC2Nc2cccc(F)c2)c1 (centres unmarked) [VIRADEM-11786, N-(3-Fluorophenyl)-6-morpholin-4-yl-N^1-m-tolyl-[1,3,5]triazine-2,4-diamine hydrochloride] | 380 nM
6 | Cc1cccc(N2C(N3CCOCC3)=NC(N)=NC2Nc2ccc(F)cc2)c1 (centres unmarked) [VIRADEM-11787, N-(4-Fluorophenyl)-6-morpholin-4-yl-N^1-m-tolyl-[1,3,5]triazine-2,4-diamine hydrochloride] | 360 nM
7 | CCOc1ccc(NC2N=C(N)N=C(N3CCOCC3)N2c2cccc(C)c2)cc1 (centres unmarked) [VIRADEM-11794, N-(4-Ethoxyphenyl)-6-morpholin-4-yl-N^1-m-tolyl-[1,3,5]triazine-2,4-diamine hydrochloride] | 270 nM
8 | Cc1ccc(NC2N=C(N)N=C(N3CCCC3)N2c2ccc(F)cc2)cc1C (centres unmarked) [VIRADEM-11809, N-(3,4-Dimethylphenyl)-N^1-(4-fluorophenyl)-6-pyrrolidin-1-yl-[1,3,5]triazine-2,4-diamine hydrochloride] | > 1000 nM
9 | CC(=O)c1cccc(Nc2nc(Nc3ccc(Cl)cc3)nc(N3CCOCC3)n2)c1 [VIRADEM-11882, 1-{3-[4-(4-chlorophenylamino)-6-morpholin-4-yl-[1,3,5]triazin-2-ylamino]-phenyl}-ethanone] | 120 nM
10 | CC(=O)c1cccc(Nc2nc(Nc3ccc(F)cc3)nc(N3CCOCC3)n2)c1 [VIRADEM-11883, 1-{3-[4-(4-Fluorophenylamino)-6-morpholin-4-yl-[1,3,5]triazin-2-ylamino]-phenyl}-ethanone hydrochloride] | > 1000 nM
11 | CCCCc1ccc(Nc2nc(Nc3cccc(C(C)=O)c3)nc(N3CCOCC3)n2)cc1 [VIRADEM-12037, 1-{3-[4-(4-Butylphenylamino)-6-morpholin-4-yl-[1,3,5]triazin-2-ylamino]-phenyl}-ethanone] | > 1000 nM
12 | CCOc1cccc(N2C(N3CCCC3)=NC(N)=NC2Nc2ccc(C)c(C)c2)c1 (centres unmarked) [VIRADEM-12185, N-(3,4-Dimethylphenyl)-N^1-(3-ethoxyphenyl)-6-pyrrolidin-1-yl-[1,3,5]triazine-2,4-diamine hydrochloride] | > 1000 nM
13 | CC(=O)c1cccc(Nc2nc(Nc3cccc(Cl)c3)nc(N3CCOCC3)n2)c1 [VIRADEM-12188, 1-{3-[4-(3-Chlorophenylamino)-6-morpholin-4-yl-[1,3,5]triazin-2-ylamino]-phenyl}-ethanone] | 320 nM
14 | COc1cccc(NC2N=C(N)N=C(N3CCOCC3)N2c2ccccc2)c1 (centres unmarked) [VIRADEM-12252, N-(3-Methoxyphenyl)-6-morpholin-4-yl-N^1-phenyl-[1,3,5]triazine-2,4-diamine hydrochloride] | 110 nM
15 | COc1ccccc1N1C(N2CCOCC2)=NC(N)=NC1Nc1cc(C)cc(C)c1 (centres unmarked) [VIRADEM-12270, N-(3,5-Dimethylphenyl)-N^1-(2-methoxyphenyl)-6-morpholin-4-yl-[1,3,5]triazine-2,4-diamine hydrochloride] | 380 nM
16 | Cc1cc(C)cc(N2C(N3CCCC3)=NC(N)=NC2Nc2cccc(Cl)c2)c1 (centres unmarked) [VIRADEM-12278, N-(3-Chlorophenyl)-N^1-(3,5-dimethylphenyl)-6-pyrrolidin-1-yl-[1,3,5]triazine-2,4-diamine hydrochloride] | > 1000 nM
17 | CC(=O)c1cccc(Nc2nc(Nc3ccc(C(C)C)cc3)nc(N3CCOCC3)n2)c1 [VIRADEM-12305, 1-{3-[4-(4-Isopropylphenylamino)-6-morpholin-4-yl-[1,3,5]triazin-2-ylamino]-phenyl}-ethanone] | 450 nM
18 | CC(C)c1ccc(Nc2nc(N3CCCC3)nc(N3CCCC3)n2)cc1 [VIRADEM-12307, (4,6-Dipyrrolidin-1-yl-[1,3,5]triazin-2-yl)-(4-isopropylphenyl)-amine hydrochloride] | > 1000 nM
19 | CCc1ccc(Nc2nc(Nc3cc(Cl)cc(Cl)c3)nc(N3CCOCC3)n2)cc1 [VIRADEM-12327, N-(3,5-Dichlorophenyl)-N^1-(4-ethylphenyl)-6-morpholin-4-yl-[1,3,5]triazine-2,4-diamine] | 730 nM
20 | COC(=O)c1ccc(Nc2nc(Nc3cccc(OC)c3)nc(N3CCOCC3)n2)cc1 [VIRADEM-12329, 4-[4-(3-Methoxyphenylamino)-6-morpholin-4-yl-[1,3,5]triazin-2-ylamino]-benzoic acid methyl ester] | 20 nM
21 | Cc1ccccc1Nc1nc(N2CCOCC2)nc(N2CCOCC2)n1 [VIRADEM-12434, (4,6-Dimorpholin-4-yl-[1,3,5]triazin-2-yl)-o-tolyl-amine] | > 1000 nM
22 | CC(C)c1ccc(Nc2nc(N3CCOCC3)nc(N3CCOCC3)n2)cc1 [VIRADEM-12435, (4,6-Dimorpholin-4-yl-[1,3,5]triazin-2-yl)-(4-isopropylphenyl)-amine] | > 1000 nM
23 | CC(C)(C)c1nnc(N2CCOCC2)nc1Nc1ccccc1 [VIRADEM-13044, (6-tert-Butyl-3-morpholin-4-yl-[1,2,4]triazin-5-yl)-phenyl-amine] | > 1000 nM
24 | COc1ccc(CC(=O)N(N)c2nc(N3CCOCC3)nc(N3CCOCC3)n2)cc1 [VIRADEM-14302, (4-Methoxyphenyl)-acetic acid N1-(4,6-dimorpholin-4-yl-[1,3,5]triazin-2-yl)-hydrazide] | > 1000 nM
25 | C1CCC(Nc2nc(N3CCOCC3)nc(N3CCOCC3)n2)C1 [VIRADEM-14309, Cyclopentyl-(4,6-dimorpholin-4-yl-[1,3,5]triazin-2-yl)-amine] | > 1000 nM
26 | Clc1ccc(Oc2nc(N3CCOCC3)nc(N3CCOCC3)n2)cc1 [VIRADEM-15106, 2-(4-Chlorophenoxy)-4,6-dimorpholin-4-yl-[1,3,5]triazine] | > 1000 nM

Same assay, conditions: VIRADEM compounds, SARS-CoV-2(WA1) CPE assay, Round 2, concentration range 1000-0.05 nM, Vero E6; read-out: IC50

Row | SMILES | IC50
27 | CCOC(=O)c1ccc(Nc2nc(Nc3ccc(C)c(C)c3)nc(N3CCOCC3)n2)cc1 [VIRADEM-11913, 4-[4-(3,4-Dimethylphenylamino)-6-morpholin-4-yl-[1,3,5]-2-ylamino]-benzoic acid ethyl ester] | 40 nM
28 | Cc1cccc(Nc2nc(Nc3ccc(C(C)C)cc3)nc(N3CCOCC3)n2)c1 [VIRADEM-12251, N-(4-Isoproylphenyl)-6-morpholin-4-yl-N^1-m-tolyl-[1,3,5]triazine-2,4-diamine hydrochloride] | 560 nM
29 | Cc1ccc(Nc2nc(Nc3ccc(C(C)C)cc3)nc(N3CCOCC3)n2)cc1 [VIRADEM-12253, N-(4-Isoproylphenyl)-6-morpholin-4-yl-N^1-p-tolyl-[1,3,5]triazine-2,4-diamine hydrochloride] | 510 nM
